Measured values as given in patent publication US8946217B2, “Pharmaceutical compounds” (F. Hoffman-La Roche AG, priority 2005, dated 2015).

Tested on: Caco-2 cells
Experiment: Caco-2 permeability
Format: in vitro ADME
Conditions: bidirectional Caco-2 assay
Experimental: Caco-2 cells were seeded onto Millipore Multiscreen plates at 1×10^5 cells/cm^2, and were cultured for 20 days. Assessment of compound permeability was subsequently conducted. The compounds were applied to the apical surface (A) of cell monolayers and compound permeation into the basolateral (B) compartment was measured. This was performed in the reverse direction (B-A) to investigate active transport. A permeability coefficient value, Papp, for each compound, a measure of the rate of permeation of the compound across the membrane, was calculated. Compounds were grouped into low (Papp</=[…]) or high (Papp>/=[…]) absorption potential based on comparison with control compounds with established human absorption.
For assessment of a compound's ability to undergo active efflux, the ratio of basolateral (B) to apical (A) transport compared with A to B was determined. Values of B-A/A-B>/=1.0 indicated the occurrence of active cellular efflux. All of the compounds tested through the Caco-2 permeability screen had Papp values >/=[…].

B-A/A-B asymmetry index: less than 1.0
Compound: CN1CCN(Cc2cc3nc(-c4cccc(O)c4)nc(N4CCOCC4)c3s2)CC1 [PI540]
